Consider 44 compounds from the supplement of paper PMC8988213.

The test system of assay [1] is ID188 patient-derived PDAC 2D line (pre-FOLFIRINOX). Put plainly: normalised area under dose-response curve (viability relative to DMSO, 7 doses up to 10 µM) (fraction (AUC)); higher = less sensitive (more viability retained). As to conditions: 72 h; top dose: 10 µM. As to the method: (§1)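 Patient-derived 2D PDAC cells (ID188 pre-FOLFIRINOX, passage 5+27; ID211 post-FOLFIRINOX, passage 9+11), 1,500-3,000 cells/well in 96-well plates, were treated with a 415-compound Selleck library in seven concentrations (3-fold dilution series, top 10 µM) for 72 h. Viability was read by CellTiter-Glo ATP luminescence, normalised to the DMSO control, and the area under the dose-response curve was computed with the GRmetrics R package; a lower AUC means higher sensitivity.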

For assay [2], the system named is ID211 patient-derived PDAC 2D line (post-FOLFIRINOX). The description is as above. Conditions: 72 h; top dose: 10 µM. As to the method: as §1

Structures can show the parent of a compound that is named as a salt.

Consider `Cc1ccc2nc(NCCN)c3ncc(C)n3c2c1`, for which the “normalised area under dose-response curve” value (shortened to “normalised area”) in assay [1] was 0.853; in assay [2], 0.857.

Turning to `CC(C)(CO)c1cc2cc(NC(=O)C3(c4ccc5c(c4)OC(F)(F)O5)CC3)c(F)cc2n1C[C@@H](O)CO` [Tezacaftor(VX-661)], the “normalised area” value in assay [1] was 0.925; in assay [2] it was 1.02.

Take `CC[C@@H]1C(=O)N(C)c2cnc(Nc3ccc(C(=O)N[C@H]4CC[C@H](N5CCN(CC6CC6)CC5)CC4)cc3OC)nc2N1C(C)C` [Volasertib (BI 6727)]: the “normalised area” value was 0.701 in assay [1] and 0.707 in assay [2].

As for `O=C(O)c1ccc(-c2c[nH]c3ncc(-c4ccccc4)cc23)cc1C1CCCC1`, the figures for the “normalised area” value in assay [1] and in assay [2] were 0.924 and 0.913, respectively.

With `O=c1[nH]c(C2CCCN2)nc2c1oc1ccc(Cl)cc12` (stereo not drawn), the “normalised area” value in assay [1] is 0.916; in assay [2] it was 0.897.

Regarding `CCCCc1nc2cc(/C=C/C(=O)NO)ccc2n1CCN(CC)CC` [Pracinostat (SB939)], the “normalised area” value in assay [1] came to 0.778; in assay [2], 0.799.

For the compound `c1ccc(-c2nn3c(c2-c2ccnc4cc(OCCN5CCOCC5)ccc24)CCC3)nc1`, the “normalised area” value was found to be 0.974 in assay [1] and 0.861 in assay [2].

On to `O=C(NC1CCNCC1)c1n[nH]cc1NC(=O)c1c(Cl)cccc1Cl` [AT7519 HCl], for which the “normalised area” value in assay [1] was determined as 0.725; in assay [2], 0.673.

Regarding `CN1CCC(CNc2ccc3ncc(-c4cccc(OC(F)(F)F)c4)n3n2)CC1` [SGI-1776 free base], the “normalised area” value is 0.949 in assay [1] and 0.788 in assay [2].

Turning to `Cc1ccc(S(=O)(=O)/C=C/C#N)cc1` [BAY 11-7082], the “normalised area” value in assay [1] turned out to be 0.957; in assay [2], 0.839.

For the compound `Nc1nc(NC2CC2)cc(-c2cccc(Cl)c2Cl)n1` [TH588], the “normalised area” value in assay [1] is 0.914; in assay [2] it was 0.918.

In the case of `CC(Nc1nc(N2CCCC2)nc2ccccc12)c1ccccc1` (stereo not drawn) [Importazole], the “normalised area” value in assay [1] was 0.956; in assay [2], 0.849.

`Nc1nc2c(cnn2CCc2ccccc2)c2nc(-c3ccco3)nn12`: the “normalised area” value in assay [1] is 0.94; in assay [2], 0.905.

With `CC[C@]1(O)C[C@H]2CN(CCc3c([nH]c4ccccc34)[C@@](C(=O)OC)(c3cc4c(cc3OC)N(C=O)[C@H]3[C@@](O)(C(=O)OC)[C@H](OC(C)=O)[C@]5(CC)C=CCN6CC[C@]43[C@@H]65)C2)C1` [Vincristine sulfate], the “normalised area” value in assay [1] was 0.558; in assay [2], 0.441.

`O=C(Nc1cc(C(F)(F)F)ccc1N1CCCCC1)c1ccncc1` [SRPIN340]: the “normalised area” value in assay [1] worked out at 0.964; in assay [2], 0.905.

Regarding `Cc1c(NC(=O)c2cc(C(N)=O)nc3cc(F)ccc23)c(C(F)(F)F)nn1Cc1ccc(C#N)cc1` [BAY-876], the “normalised area” value in assay [1] turned out to be 0.826; in assay [2], 0.718.

For `O=C(Cc1ccc(-c2ccc(OCCN3CCOCC3)cc2)cn1)NCc1ccccc1` [KX2-391], the “normalised area” value worked out at 0.624 in assay [1] and 0.508 in assay [2].

Regarding `CCOc1cc2ncc(C#N)c(Nc3ccc(OCc4ccccn4)c(Cl)c3)c2cc1NC(=O)/C=C/CN(C)C` [Neratinib (HKI-272)], the “normalised area” value in assay [1] was 0.893; in assay [2], 0.638.

As for `Cc1cccc(-c2nn3c(c2-c2ccnc4ccc(C(N)=O)cc24)CCC3)n1`, the “normalised area” value was found to be 0.968 in assay [1] and 0.965 in assay [2].

As for `CCCS(=O)(=O)Nc1ccc(F)c(C(=O)c2c[nH]c3ncc(Cl)cc23)c1F` [PLX-4720], the entries for the “normalised area” value in assay [1] and in assay [2] were 0.886 and 0.842, respectively.

`CC(C)=CCC/C(C)=C/CC/C(C)=C/CSc1ccccc1C(=O)O` [Salirasib]: the results for the “normalised area” value in assay [1] and in assay [2] were 0.949 and 0.881, respectively.

As for `O=C(/C=C/c1ccc2ccccc2n1)c1ccncc1` [PFK15], the results for the “normalised area” value in assay [1] and in assay [2] were 0.911 and 0.778, respectively.

`NCCCC[C@H](NC(=O)[C@@H](NC(=O)[C@H](Cc1c[nH]c2ccccc12)NC(=O)[C@H](CCCCN)NC(=O)[C@H](CCCCN)NC(=O)[C@H](Cc1c[nH]c2ccccc12)NC(=O)[C@H](Cc1c[nH]c2ccccc12)NC(=O)[C@H](CCCCN)NC(=O)[C@@H](N)CCCCN)C(c1ccccc1)c1ccccc1)C(N)=O` [LTX-315]: the “normalised area” value in assay [1] was determined as 0.943; in assay [2], 0.804.

On to `O=C(NNc1ccccc1)c1ccncc1`, for which the “normalised area” value was 0.961 in assay [1] and 0.899 in assay [2].

In the case of `CNC(=O)c1cc(Oc2ccc(NC(=O)Nc3ccc(Cl)c(C(F)(F)F)c3)cc2)ccn1` [Sorafenib Tosylate], the “normalised area” value in assay [1] worked out at 0.947; in assay [2], 0.953.

`C=CC(=O)N1CCC(Oc2cc3c(Nc4ccc(Cl)c(Cl)c4F)ncnc3cc2OC)CC1` [Poziotinib (HM781-36B)]: the “normalised area” value stood at 0.908 in assay [1] and 0.54 in assay [2].

With `Cc1cc(C)c(CNC(=O)c2cc(-c3ccc(CN4CCOCC4)cc3)cc3c2cnn3C2CCCC2)c(=O)[nH]1`, the “normalised area” value is 0.896 in assay [1] and 0.812 in assay [2].

With `COc1ccc(-c2cc3nccn3c(Nc3ncccc3C(N)=O)n2)cc1OC` [BAY-61-3606], the “normalised area” value was found to be 0.871 in assay [1] and 0.79 in assay [2].

As to `Nc1[nH]nc2nnc(-c3c(-c4ccccc4)nn4ccccc34)cc12`, the “normalised area” value in assay [1] was found to be 0.847; in assay [2], 0.849.

As for `Cc1nnc(C(C)C)n1C1C[C@H]2CC[C@@H](C1)N2CC[C@H](NC(=O)C1CCC(F)(F)CC1)c1ccccc1` (stereo in doubt) [Maraviroc], the “normalised area” value in assay [1] worked out at 1; in assay [2] it was 0.865.

Consider `CCOc1ccc(Cc2cc([C@@H]3O[C@H](CO)[C@@H](O)[C@H](O)[C@H]3O)ccc2Cl)cc1` [Dapagliflozin], for which the “normalised area” value is 0.943 in assay [1] and 0.913 in assay [2].

In the case of `CNCCN(C)Cc1c[nH]nc1-c1ccc(O[C@H]2C[C@H](OCCC3CCOCC3)C2)cc1`, the “normalised area” value in assay [1] was 0.779; in assay [2] it was 0.92.

Take `CCN1CCN(Cc2ccc(C(=O)Nc3ccc(C)c(Oc4ccc5c(c4)CC(=O)N5)c3)cc2C(F)(F)F)CC1` [DDR1-IN-1]: the figures for the “normalised area” value in assay [1] and in assay [2] were 0.934 and 0.908, respectively.

Take `N[C@@H]1CCCN(c2c(/C=C3\SC(=O)NC3=O)cccc2-c2ccccc2)C1` [AZD1208]: the “normalised area” value in assay [1] was determined as 0.958; in assay [2], 0.841.

As to `Cc1cnc(NC(=O)Nc2cc(Br)c(C)cc2OC[C@@H]2CNCCO2)cn1`, the “normalised area” value in assay [1] amounted to 0.731; in assay [2], 0.869.

For the compound `Cc1ncc(Cl)cc1NCc1ccc(C(=O)N[C@@H](CC2CCCC2)C(=O)NC2CC2)s1`, the “normalised area” value in assay [1] turned out to be 0.923; in assay [2], 0.865.

Turning to `CC(=O)c1cc([N+](=O)[O-])c(Sc2cccc(Cl)c2Cl)s1`, the results for the “normalised area” value in assay [1] and in assay [2] were 0.98 and 0.848, respectively.

Take `CS(=O)(=O)CCNCc1ccc(-c2ccc3ncnc(Nc4ccc(OCc5cccc(F)c5)c(Cl)c4)c3c2)o1`: the “normalised area” value turned out to be 0.924 in assay [1] and 0.614 in assay [2].

With `C[C@]1(c2nc3c(C(N)=O)cccc3[nH]2)CCCN1` [Veliparib (ABT-888)], the “normalised area” value worked out at 0.913 in assay [1] and 0.923 in assay [2].

Take `Cc1cc(/N=N/c2ccc(S(=O)(=O)Nc3ccccn3)cc2)c(N)cc1O` [MS436]: the “normalised area” value in assay [1] worked out at 0.977; in assay [2], 0.957.

`Cc1cc(F)c(C(=O)Nc2cccc(-c3nncn3C(C)C)n2)cc1-n1cnc(C2CC2)c1` [Selonsertib (GS-4997)]: the figures for the “normalised area” value in assay [1] and in assay [2] were 0.951 and 0.911, respectively.

`Cc1[nH]c(/C=C2\C(=O)Nc3ccccc32)c(C)c1CCC(=O)O` [Orantinib (TSU-68, SU6668)]: the “normalised area” value in assay [1] is 0.845; in assay [2] it was 0.843.

Take `CN(C)C/C=C/C(=O)Nc1cc2c(Nc3ccc(F)c(Cl)c3)ncnc2cc1O[C@H]1CCOC1` [Afatinib (BIBW2992) Dimaleate]: the “normalised area” value in assay [1] was 0.855; in assay [2] it was 0.58.

As to `Cc1cc(Nc2cc(N3CCN(C)CC3)nc(Sc3ccc(NC(=O)C4CC4)cc3)n2)n[nH]1` [Tozasertib (VX-680, MK-0457)], the “normalised area” value was found to be 0.235 in assay [1] and 0.716 in assay [2].
